Data taken from US10072011B2, “Substituted bridged urea analogs as sirtuin modulators” (GlaxoSmithKline Intellectual Property (No.2) Limited, priority 2014, dated 2018).
Read-outs that look alike come from different tables or passages of the source.

Molecular target: T1, SIRT1 (Homo sapiens, UniProt Q96EB6)
T1 sequence (Q96EB6 1-747): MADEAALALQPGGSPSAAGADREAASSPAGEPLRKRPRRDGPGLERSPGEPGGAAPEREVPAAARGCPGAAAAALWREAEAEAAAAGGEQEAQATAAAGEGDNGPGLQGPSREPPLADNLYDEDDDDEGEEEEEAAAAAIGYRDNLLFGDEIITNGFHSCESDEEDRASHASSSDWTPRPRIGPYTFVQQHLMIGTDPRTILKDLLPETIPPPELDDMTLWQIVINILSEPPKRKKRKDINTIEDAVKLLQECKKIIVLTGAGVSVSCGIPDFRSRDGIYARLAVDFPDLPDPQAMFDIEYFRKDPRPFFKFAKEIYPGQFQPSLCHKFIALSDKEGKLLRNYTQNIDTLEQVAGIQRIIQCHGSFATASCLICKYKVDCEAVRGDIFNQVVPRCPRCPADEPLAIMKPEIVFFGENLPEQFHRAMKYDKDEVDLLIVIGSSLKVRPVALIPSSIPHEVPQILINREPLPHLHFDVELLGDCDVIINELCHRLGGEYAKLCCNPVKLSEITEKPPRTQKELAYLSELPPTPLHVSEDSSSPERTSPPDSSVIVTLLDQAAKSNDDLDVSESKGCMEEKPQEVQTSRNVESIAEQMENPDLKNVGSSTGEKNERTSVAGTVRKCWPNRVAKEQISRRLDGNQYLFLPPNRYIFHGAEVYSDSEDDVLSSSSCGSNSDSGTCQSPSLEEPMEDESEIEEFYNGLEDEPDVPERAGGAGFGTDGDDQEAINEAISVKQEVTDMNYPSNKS
Assay: Trp mass spectrometry assay of SIRT1 activation (Ac-R-H-K-K(Ac)-W-NH2 peptide)
Format: biochemical
Conditions: for Emax: 25 min, read-out: TRP MAX RESP (percent maximum fold activation)
Outline: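 N-terminal His-tagged human SIRT1, expressed in BL21(DE3) and purified, was incubated 25 min with an acetylated Trp peptide and NAD plus test compound at varying concentrations, then quenched with formic acid. OAADPR or deacetylated peptide was quantified by mass spectrometry versus compound-free control; EC1.5 is the concentration giving 50% activity increase, with percent maximum activation.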

[1] = Trp peptide 0.5 μM, 120 μM βNAD+, 10 nM SIRT1, 25 min at 25° C., relative to control (100%)
[2] = Trp peptide 0.5 μM, 120 μM βNAD+, 10 nM SIRT1, 25 min at 25° C.

Cc1ccc2c(NC(=O)N3c4nc(C(=O)NC5CC5)ccc4N4CC[C@H]3C4)n[nH]c2n1 [Example 54, (4S)—N7-cyclopropyl-N5-(6-methyl-1H-pyrazolo[3,4-b]pyridin-3-yl)-3,4-dihydro-1,4-methanopyrido[2,3-b][1,4]diazepine-5,7(2H)-dicarboxamide]
Emax [1]: > 150% | TRP Activity (EC1.5, concentration of test compound that results in 150% activation of SIRT1) [2]: B (EC1.5 1-25 μM)

Cc1ccnc(NC(=O)N2c3nc(C(=O)N[C@H](C)C(F)(F)F)ccc3N3CC[C@H]2C3)c1 [Example 55, (4S)—N5-(4-methylpyridin-2-yl)-N7-((R)-1,1,1-trifluoropropan-2-yl)-3,4-dihydro-1,4-methanopyrido[2,3-b][1,4]diazepine-5,7(2H)-dicarboxamide]
Emax [1]: > 150% | TRP Activity (EC1.5, concentration of test compound that results in 150% activation of SIRT1) [2]: A (EC1.5<1 μM)

Cc1ccc(NC(=O)N2c3nc(C(=O)N[C@H](C)C(F)(F)F)ccc3N3CC[C@H]2C3)nc1 [Example 56, (4S)—N5-(5-methylpyridin-2-yl)-N7-((R)-1,1,1-trifluoropropan-2-yl)-3,4-dihydro-1,4-methanopyrido[2,3-b][1,4]diazepine-5,7(2H)-dicarboxamide]
Emax [1]: > 150% | TRP Activity (EC1.5, concentration of test compound that results in 150% activation of SIRT1) [2]: A (EC1.5<1 μM)

Cc1cc(F)cnc1NC(=O)N1c2nc(C(=O)N[C@H](C)C(F)(F)F)ccc2N2CC[C@H]1C2 [Example 57, (4S)—N5-(5-fluoro-3-methylpyridin-2-yl)-N7-((R)-1,1,1-trifluoropropan-2-yl)-3,4-dihydro-1,4-methanopyrido[2,3-b][1,4]diazepine-5,7(2H)-dicarboxamide]
Emax [1]: > 150% | TRP Activity (EC1.5, concentration of test compound that results in 150% activation of SIRT1) [2]: B (EC1.5 1-25 μM)

C[C@@H](NC(=O)c1ccc2c(n1)N(C(=O)Nc1ncc3cc[nH]c3n1)[C@H]1CCN2C1)C(F)(F)F [Example 62, (4S)—N5-(7H-pyrrolo[2,3-d]pyrimidin-2-yl)-N7-((R)-1,1,1-trifluoropropan-2-yl)-3,4-dihydro-1,4-methanopyrido[2,3-b][1,4]diazepine-5,7(2H)-dicarboxamide]
Emax [1]: > 150% | TRP Activity (EC1.5, concentration of test compound that results in 150% activation of SIRT1) [2]: A (EC1.5<1 μM)

O=C(NCC(F)(F)F)c1ccc2c(n1)N(C(=O)Nc1cnccn1)[C@H]1CCN2C1 [Example 63, (4S)—N5-(pyrazin-2-yl)-N7-(2,2,2-trifluoroethyl)-3,4-dihydro-1,4-methanopyrido[2,3-b][1,4]diazepine-5,7(2H)-dicarboxamide]
Emax: > 150% | TRP Activity (EC1.5, concentration of test compound that results in 150% activation of SIRT1) [2]: A (EC1.5<1 μM)

Cc1ccc2c(NC(=O)N3c4nc(C(=O)NCC(F)(F)F)ccc4N4CC[C@H]3C4)n[nH]c2n1 [Example 64, (4S)—N5-(6-methyl-1H-pyrazolo[3,4-b]pyridin-3-yl)-N7-(2,2,2-trifluoroethyl)-3,4-dihydro-1,4-methanopyrido[2,3-b][1,4]diazepine-5,7(2H)-dicarboxamide]
Emax [1]: > 150% | TRP Activity (EC1.5, concentration of test compound that results in 150% activation of SIRT1) [2]: A (EC1.5<1 μM)

C[C@@H](NC(=O)c1ccc2c(n1)N(C(=O)Nc1ccncn1)[C@H]1CCN2C1)C(F)(F)F [Example 66, (4S)—N5-(pyrimidin-4-yl)-N7-((R)-1,1,1-trifluoropropan-2-yl)-3,4-dihydro-1,4-methanopyrido[2,3-b][1,4]diazepine-5,7(2H)-dicarboxamide]
Emax [1]: > 150% | TRP Activity (EC1.5, concentration of test compound that results in 150% activation of SIRT1) [2]: A (EC1.5<1 μM)

O=C(NC1CC1)c1ccc2c(n1)N(C(=O)Nc1ccc(Cl)cn1)[C@H]1CCN2C1 [Example 67, (4S)—N5-(5-chloropyridin-2-yl)-N7-cyclopropyl-3,4-dihydro-1,4-methanopyrido[2,3-b][1,4]diazepine-5,7(2H)-dicarboxamide]
Emax [1]: > 150% | TRP Activity (EC1.5, concentration of test compound that results in 150% activation of SIRT1) [2]: B (EC1.5 1-25 μM)

C[C@@H](NC(=O)c1ccc2c(n1)N(C(=O)Nc1cc[nH]n1)[C@H]1CCN2C1)C(F)(F)F [Example 68, (4S)—N5-(1H-pyrazol-3-yl)-N7-((R)-1,1,1-trifluoropropan-2-yl)-3,4-dihydro-1,4-methanopyrido[2,3-b][1,4]diazepine-5,7(2H)-dicarboxamide]
Emax [1]: > 150% | TRP Activity (EC1.5, concentration of test compound that results in 150% activation of SIRT1) [2]: A (EC1.5<1 μM)

O=C(NCC(F)F)c1ccc2c(n1)N(C(=O)Nc1ccc(F)cn1)[C@H]1CCN2C1 [Example 69, (4S)—N7-(2,2-difluoroethyl)-N5-(5-fluoropyridin-2-yl)-3,4-dihydro-1,4-methanopyrido[2,3-b][1,4]diazepine-5,7(2H)-dicarboxamide]
Emax: > 150% | TRP Activity (EC1.5, concentration of test compound that results in 150% activation of SIRT1) [2]: A (EC1.5<1 μM)

O=C(NCC(F)(F)F)c1ccc2c(n1)N(C(=O)Nc1ccc(F)cn1)[C@H]1CCN2C1 [Example 70, (4S)—N5-(5-fluoropyridin-2-yl)-N7-(2,2,2-trifluoroethyl)-3,4-dihydro-1,4-methanopyrido[2,3-b][1,4]diazepine-5,7(2H)-dicarboxamide]
Emax [1]: > 150% | TRP Activity (EC1.5, concentration of test compound that results in 150% activation of SIRT1) [2]: A (EC1.5<1 μM)

O=C(NC[C@@H](O)C(F)(F)F)c1ccc2c(n1)N(C(=O)Nc1ccc(F)cn1)[C@H]1CCN2C1 [Example 71, (4S)—N5-(5-fluoropyridin-2-yl)-N7-((R)-3,3,3-trifluoro-2-hydroxypropyl)-3,4-dihydro-1,4-methanopyrido[2,3-b][1,4]diazepine-5,7(2H)-dicarboxamide]
Emax [1]: > 150% | TRP Activity (EC1.5, concentration of test compound that results in 150% activation of SIRT1) [2]: A (EC1.5<1 μM)

CC(C)(C)CNC(=O)c1ccc2c(n1)N(C(=O)Nc1ccc(F)cn1)[C@H]1CCN2C1 [Example 73, (4S)—N5-(5-fluoropyridin-2-yl)-N7-neopentyl-3,4-dihydro-1,4-methanopyrido[2,3-b][1,4]diazepine-5,7(2H)-dicarboxamide]
Emax [1]: > 150% | TRP Activity (EC1.5, concentration of test compound that results in 150% activation of SIRT1) [2]: A (EC1.5<1 μM)

C[C@@H](NC(=O)c1ccc2c(n1)N(C(=O)Nc1cc(OC[C@H](O)CO)ccn1)[C@H]1CCN2C1)C(F)(F)F [Example 74, (4S)—N5-(4-((R)-2,3-dihydroxypropoxy)pyridin-2-yl)-N7-((R)-1,1,1-trifluoropropan-2-yl)-3,4-dihydro-1,4-methanopyrido[2,3-b][1,4]diazepine-5,7(2H)-dicarboxamide]
Emax [1]: > 150%

C[C@@H](NC(=O)c1ccc2c(n1)N(C(=O)Nc1ncco1)[C@H]1CCN2C1)C(F)(F)F [Example 75, (4S)—N5-(oxazol-2-yl)-N7-((R)-1,1,1-trifluoropropan-2-yl)-3,4-dihydro-1,4-methanopyrido[2,3-b][1,4]diazepine-5,7(2H)-dicarboxamide]
Emax [1]: > 150% | TRP Activity (EC1.5, concentration of test compound that results in 150% activation of SIRT1) [2]: A (EC1.5<1 μM)

Cc1ccc2c(NC(=O)N3c4nc(C(=O)N[C@H](C)C(F)(F)F)ccc4N4CC[C@H]3C4)n[nH]c2n1 [Example 76, (4S)—N5-(6-methyl-1H-pyrazolo[3,4-b]pyridin-3-yl)-N7-((R)-1,1,1-trifluoropropan-2-yl)-3,4-dihydro-1,4-methanopyrido[2,3-b][1,4]diazepine-5,7(2H)-dicarboxamide]
Emax [1]: > 150% | TRP Activity (EC1.5, concentration of test compound that results in 150% activation of SIRT1) [2]: A (EC1.5<1 μM)

C[C@@H](NC(=O)c1ccc2c(n1)N(C(=O)Nc1cccnn1)[C@H]1CCN2C1)C(F)(F)F [Example 77, (4S)—N5-(pyridazin-3-yl)-N7-((R)-1,1,1-trifluoropropan-2-yl)-3,4-dihydro-1,4-methanopyrido[2,3-b][1,4]diazepine-5,7(2H)-dicarboxamide]
Emax [1]: > 150% | TRP Activity (EC1.5, concentration of test compound that results in 150% activation of SIRT1) [2]: A (EC1.5<1 μM)

O=C(NC1CC1)c1ccc2c(n1)N(C(=O)Nc1cc(-c3cnco3)ccn1)[C@H]1CCN2C1 [Example 78, (4S)—N7-cyclopropyl-N5-(4-(oxazol-5-yl)pyridin-2-yl)-3,4-dihydro-1,4-methanopyrido[2,3-b][1,4]diazepine-5,7(2H)-dicarboxamide]
Emax [1]: > 150% | TRP Activity (EC1.5, concentration of test compound that results in 150% activation of SIRT1) [2]: A (EC1.5<1 μM)

O=C(NCCC(F)(F)F)c1ccc2c(n1)N(C(=O)Nc1ccc(F)cn1)[C@H]1CCN2C1 [Example 79, (4S)—N5-(5-fluoropyridin-2-yl)-N7-(3,3,3-trifluoropropyl)-3,4-dihydro-1,4-methanopyrido[2,3-b][1,4]diazepine-5,7(2H)-dicarboxamide]
Emax [1]: > 150% | TRP Activity (EC1.5, concentration of test compound that results in 150% activation of SIRT1) [2]: A (EC1.5<1 μM)
